Assay results published in ChEMBL document CHEMBL1137661, “Interaction study of the combined use of paroxetine and fosamprenavir-ritonavir in healthy subjects” (Antimicrob Agents Chemother, 2007).
Blank lines part the entries; values can stand above or below the compound they belong to.

Tests used:
Homo sapiens [1] = test: Half life in human assessed as amprenavir levels at 700 mg, po bid for 10 days pretreated with paroxetin at 20 mg, po qd for 10 days followed by 16 days washout period then coadministered with paroxetin at 20 mg, po qd and ritonavir at 100 mg, po bid for 10 days; format: ADME, organism-based; conditions: in vivo
Homo sapiens [2] = test: AUC (0 to 12 hrs) in human assessed as amprenavir levels at 700 mg, po bid for 10 days pretreated with paroxetin at 20 mg, po qd for 10 days followed by 16 days washout period then coadministered with paroxetin at 20 mg, po qd and ritonavir at 100 mg, po bid for 10 days; format: ADME, organism-based, Plasma; design: time < 12 hr, dose 700 mg, route oral; conditions: in vivo
[3] = Half life in human at 20 mg, po qd for 10 days followed by 16 days washout period and treated with 20 mg, po qd for 10 days coadministered with fosamprenavir at 700 mg, po bid and ritonavir at 100 mg, po bid; format: ADME, organism-based; conditions: in vivo
[4] = Cmax in human at 20 mg, po qd for 10 days; format: ADME, organism-based; design: dose 20 mg, route oral; conditions: in vivo
Homo sapiens [5] = test: Toxicity in human assessed as serious adverse events at 20 mg, po qd for 10 days; format: organism-based; conditions: in vivo, 240 h
Homo sapiens [6] = test: Toxicity in human assessed as serious adverse events at 20 mg, po qd for 10 days followed by 16 days washout period and treated with 20 mg, po qd for 10 days coadministered with fosamprenavir at 700 mg, po bid and ritonavir at 100 mg, po bid; format: organism-based; conditions: in vivo
[7] = Apparent volume of distribution in human; format: ADME, organism-based; conditions: in vivo, read-out: Vz
[8] = AUC (0 to 24 hrs) in human at 20 mg, po qd for 10 days; format: ADME, organism-based; design: time < 24 hr, dose 20 mg, route oral; conditions: plasma
[9] = Cmax in human at 20 mg, po qd for 10 days followed by 16 days washout period and treated with 20 mg, po qd for 10 days coadministered with fosamprenavir at 700 mg, po bid and ritonavir at 100 mg, po bid; format: ADME, organism-based; design: dose 20 mg, route oral; conditions: in vivo
[10] = Apparent oral clearance in human at 20 mg, po qd for 10 days; format: ADME, organism-based; conditions: in vivo
Homo sapiens [11] = test: Decrease in serotonin concentration in human platelets at 20 mg, po qd for 10 days relative to control; format: functional; design: scale not given: the % may be the effect or the level left
[12] = Half life in human at 20 mg, po qd for 10 days; format: ADME, organism-based; conditions: in vivo
Homo sapiens [13] = test: Decrease in serotonin concentration in human platelets at 20 mg, po qd for 10 days followed by 16 days washout period and treated with 20 mg, po qd for 10 days coadministered with fosamprenavir at 700 mg, po bid and ritonavir at 100 mg, po bid relative to control; format: functional; design: scale not given: the % may be the effect or the level left
[14] = AUC (0 to 24 hrs) in human at 20 mg, po qd for 10 days followed by 16 days washout period and treated with 20 mg, po qd for 10 days coadministered with fosamprenavir at 700 mg, po bid and ritonavir at 100 mg, po bid; format: ADME, organism-based; design: dose 20 mg, time < 24 hr, route oral; conditions: plasma
[15] = AUC (0 to 12 hrs) in human at 100 mg, po bid for 10 days pretreated with paroxetin at 20 mg, po qd for 10 days followed by 16 days washout period then coadministered with paroxetin at 20 mg, po qd and fosamprenavir at 700 mg, po bid for 10 days; format: ADME, organism-based; design: time < 12 hr, dose 100 mg, route oral; conditions: plasma
clinical = conditions: human, in vivo, po
Description: Half life in human at 100 mg, po bid for 10 days pretreated with paroxetin at 20 mg, po qd for 10 days followed by 16 days washout period then coadministered with paroxetin at 20 mg, po qd and fosamprenavir at 700 mg, po bid for 10 days

t1/2 (Homo sapiens [1]): 11.5 h
AUC (Homo sapiens [2]): 44100 ng·h/mL
Compound: CC(C)CN(C[C@@H](O)[C@H](Cc1ccccc1)NC(=O)O[C@H]1CCOC1)S(=O)(=O)c1ccc(N)cc1 [AMPRENAVIR]

Compound: Fc1ccc([C@@H]2CCNC[C@H]2COc2ccc3c(c2)OCO3)cc1 [PAROXETINE]
half-life [3]: 15.9 h
Cmax [4]: 34 ng/mL
Activity (Homo sapiens [5]): Non-toxic
Activity (Homo sapiens [6]): Non-toxic
Vd [7]: 8.7 L/kg
AUC at 24 h [8]: 590 ng·h/mL
Cmax [9]: 17 ng/mL
CL/F [10]: 552 mL/min
Activity (Homo sapiens [11]): 87%
half-life [12]: 21.1 h
Activity (Homo sapiens [13]): 81%
AUC at 24 h [14]: 270 ng·h/mL

AUC at 12 h [15]: 5100 ng·h/mL
half-life (clinical): 4.1 h
Compound: CC(C)c1nc(CN(C)C(=O)N[C@H](C(=O)N[C@@H](Cc2ccccc2)C[C@H](O)[C@H](Cc2ccccc2)NC(=O)OCc2cncs2)C(C)C)cs1 [RITONAVIR]
